These results are taken from patent US20070254914A1, “Low-concentration atropine solution for preventing myopia progression and preparing method thereof” (Non-Profit Organization Chang Gung Memorial Hospital, priority 2006, published 2007).

Where a name gives a salt, the structure may show the parent alone. Read-outs that look alike come from different tables or passages of the source.

The subject of series [1] is patients (pupil diameter). As to the kind of experiment: mydriasis phenomenon (pupil diameter) after administration of different atropine concentrations. In kind it is in vivo, human.
Series [2] relates to patients (myopia progression). As to the kind of experiment: study of the present invention in 2006: myopia progression in patients treated with 0.05% atropine solution. In kind it is in vivo, human. To be noted: for Increased diopter (D) per year: 0.05% (w/w) atropine solution. The text has this: With regard to Table 2, 21 patients (42 eyes) were subject in the treatment group and 36 patients were subject in the control group. All patients are residents in southern Taiwan. Male-female ratios in the treatment group and the control group were respectively 12:9 and 18:18.
Wherein, an average age in the treatment group was 8.38±1.47 years old (range from 6 to 12 years old) and an average age in the control group was 8.11±1.12 years old (range from 6 to 12 years old).
Treating periods of the treatment group and the control group in average are respectively 19.95±9.04 months and 21.47±10.02.

Series [3] concerns mydriasis phenomenon. As to the kind of experiment: durations of mydriasis phenomenon in administration of different ingredients for preventing myopia progression. In kind it is in vivo, human.
The test system of series [4] is patients (accommodation capability of eyes). As to the kind of experiment: influences on accommodation capability with administration of different atropine concentrations. In kind it is in vivo, human. On the procedure:
Moreover, the myopia exacerbation also substantially relates to visual distance during near working that the patient continuously overuses high accommodation capability of eyes.
With regard to Table 4, 21 patients were treated with 0.05% (w/w) atropine solution in a first treatment group, 9 patients were treated with 0.1% (w/w) atropine solution in a second treatment group and 6 patients were treated with blank solution in the control group. Male-female ratios in the treatment groups and the control group were respectively […] in the first treatment group, 5:4 in the second treatment group and 3:3 in the control group.
Wherein, average ages were respectively 9.4±1.7 years old in the first treatment group, 11±1.7 years old in the second treatment group and 10±2 years old in the control group.
Treating periods of the treatment groups in average were respectively 22.43±12.9 months in the first treatment group and 25.88±12.47 months in the second treatment group.
Observation timing after applying the atropine solutions were respectively 16.37±2.53 hours in the first treatment group and 17.11±1.9 hours in the second treatment group.

Series [5] deals with patients (photophobia). The experiment in a line: photophobia ratios with administration of different atropine concentrations. In kind it is in vivo, human. The text has this: According to following Table 6, patients treated with 0.05% (w/w) atropine solution suffered the photophobia in a lower ratio in comparison with ones treated with 0.1% (w/w) atropine solution.
In series [6] the test system is Myopic Children. To be noted: Shin's study 1999, cited from earlier work.
[7] abbreviates: marketed concentrations as listed in Table 7 (Soln/Ointment 0.5%-3%).

With `CN1[C@@H]2CC[C@H]1C[C@@H](OC(=O)C(CO)c1ccccc1)C2` (stereo partly shown) [Atropine, atropine], the figures for the Pupil diameter in series [1] (0.05% atropine solution) and in series [1] (0.1% atropine solution) were 5.52 mm and 6.10 mm, respectively. Besides, the “Increased diopter (D) per year” value in series [2] (1st (yearly follow-up)) was 0.34(D/yr); in series [2] (2nd (yearly follow-up)), 0.32(D/yr); in series [2] (3rd (yearly follow-up)), 0.14(D/yr); in series [2] (All (average)) it was 0.29(D/yr). The Myopia progression is listed as 0.28(diopter/yr) in series [2] (0.05% atropine solution, 21 patients (42 eyes), 6 to 12 years old, treating period 19.95±9.04 months); 0.47 diopter/yr in series [6] (0.1% atropine solution); 0.45 diopter/yr in series [6] (0.25% atropine solution); 0.04 diopter/yr in series [6] (0.5% atropine solution). The Duration of mydriasis in series [3] (1% (w/w) atropine solution) fell in the range of 7 to 14 days; in series [3] (Soln, 0.05% (w/w), listed as atropine) it was 0.5 to 0.75 days. Further, the Accommodation capability in series [4] (0.05% atropine solution, observed 16.37±2.53 hours after applying, treating period 22.43±12.9 months) is given as 2.45(D); in series [4] (0.1% atropine solution, observed 17.11±1.9 hours after applying, treating period 25.88±12.47 months), 2.22(D). Besides, the Photophobia ratio in series [5] (0.05% atropine solution) is given as 66.67%; in series [5] (0.1% atropine solution) it was 85.71%.

With `CN(C)CCOC(=O)C(c1ccccc1)C1(O)CCCC1` (stereo not shown) [Cyclopentolate Hydrochloride], in series [3] (human, in vivo), the Duration of mydriasis stood at 2 days and the “Occurring time (mydriasis)” value was 30 to 60 min.

On to `CN1[C@@H]2CC[C@H]1C[C@@H](OC(=O)C(CO)c1ccccc1)C2` (stereo partly shown) [Atropine sulfate], for which the “Occurring time (mydriasis)” value is 45 to 120 min in series [3] (Soln, 0.05%) and 45 to 120 min in series [3] (setting [7]). Moreover, the Duration of mydriasis in series [3] (Soln, 0.05% (w/w)) fell in the range of 0.5 to 0.75 days; in series [3] (setting [7]) it was 7 to 14 days.
